# From PubChem BioAssay AID330 (DTP/NCI, 2004)
# Values joined by “and” are separate entries in the source; they are usually repeats but may differ in a detail not shown here. Equal entries are not always repeated. Toxic doses and inconclusive results are not listed.
# Test system: P388 leukemia ip, CD2F1 mice, survival T/C
# Assay: NCI In Vivo Anticancer Drug Screen. Data for tumor model P388 Leukemia (intraperitoneal) in CD2F1 (CDF1) mice
# Details: endpoint: median survival time, higher = longer survival
# Outline: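 Mice carrying the transplanted tumor received test compound or vehicle. Survival was recorded in each group, and the value is the treated-group measurement divided by that of the vehicle-treated control group.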
# [1] = dose: 60.0 mg/kg/injection, schedule: Q01DX005 (ip), vehicle: saline with Tween-80
# [2] = dose: 120.0 mg/kg/injection, schedule: Q01DX005 (ip), vehicle: saline with Tween-80
# [3] = dose: 240.0 mg/kg/injection, schedule: Q01DX005 (ip), vehicle: saline with Tween-80
compound,measurement,setting,value
C1CCC2C[N-]CCC2C1.C1CCC2C[N-]CCC2C1.C1CCC2C[N-]CCC2C1.C1CCC2C[N-]CCC2C1.[Cl][Rh][Cl] (configuration not stated),T/C,"dose: 0.06 mg/kg/injection, schedule: Q03HX024 (ip), vehicle: saline",105 % of control
same,T/C,"dose: 0.13 mg/kg/injection, schedule: Q03HX008 (ip), vehicle: saline",113 % of control
same,T/C,"dose: 0.13 mg/kg/injection, schedule: Q03HX016 (ip), vehicle: saline",105 % of control
same,T/C,"dose: 0.13 mg/kg/injection, schedule: Q03HX024 (ip), vehicle: saline",100 % of control
same,T/C,"dose: 0.25 mg/kg/injection, schedule: Q01DX009 (ip), vehicle: saline",107 % of control
same,T/C,"dose: 0.25 mg/kg/injection, schedule: Q03HX008 (ip), vehicle: saline",118 % of control
same,T/C,"dose: 0.25 mg/kg/injection, schedule: Q03HX016 (ip), vehicle: saline",110 % of control
same,T/C,"dose: 0.25 mg/kg/injection, schedule: Q03HX024 (ip), vehicle: saline",108 % of control
same,T/C,"dose: 0.5 mg/kg/injection, schedule: Q01DX009 (ip), vehicle: saline",110 % of control
same,T/C,"dose: 0.5 mg/kg/injection, schedule: Q03HX008 (ip), vehicle: saline",123 % of control
same,T/C,"dose: 0.5 mg/kg/injection, schedule: Q03HX016 (ip), vehicle: saline",116 % of control
same,T/C,"dose: 0.5 mg/kg/injection, schedule: Q03HX024 (ip), vehicle: saline",117 % of control
same,T/C,"dose: 0.5 mg/kg/injection, schedule: Q04DX003 (ip), vehicle: saline",111 % of control
same,T/C,"dose: 1.0 mg/kg/injection, schedule: Q01DX001 (ip), vehicle: saline",118 % of control
same,T/C,"dose: 1.0 mg/kg/injection, schedule: Q03HX008 (ip), vehicle: saline",121 % of control
same,T/C,"dose: 1.0 mg/kg/injection, schedule: Q03HX016 (ip), vehicle: saline",115 % of control
same,T/C,"dose: 1.0 mg/kg/injection, schedule: Q04DX003 (ip), vehicle: saline",113 % of control
same,T/C,"dose: 1.0 mg/kg/injection, schedule: Q08DX002 (ip), vehicle: saline",114 % of control
same,T/C,"dose: 1.3 mg/kg/injection, schedule: Q01DX009 (ip), vehicle: water",111 % of control
same,T/C,"dose: 2.0 mg/kg/injection, schedule: Q01DX001 (ip), vehicle: saline",119 % of control
same,T/C,"dose: 2.0 mg/kg/injection, schedule: Q03HX008 (ip), vehicle: saline",119 % of control
same,T/C,"dose: 2.0 mg/kg/injection, schedule: Q04DX003 (ip), vehicle: saline",115 % of control
same,T/C,"dose: 2.0 mg/kg/injection, schedule: Q08DX002 (ip), vehicle: saline",121 % of control
same,T/C,"dose: 3.0 mg/kg/injection, schedule: Q01DX009 (ip), vehicle: water",111 % of control
same,T/C,"dose: 3.13 mg/kg/injection, schedule: Q04DX003 (ip), vehicle: saline with Tween-80",150 % of control
same,T/C,"dose: 4.0 mg/kg/injection, schedule: Q01DX001 (ip), vehicle: saline",118 % of control
same,T/C,"dose: 4.0 mg/kg/injection, schedule: Q03HX016 (ip), vehicle: saline",110 % of control
same,T/C,"dose: 4.0 mg/kg/injection, schedule: Q04DX003 (ip), vehicle: saline",124 % of control
same,T/C,"dose: 4.0 mg/kg/injection, schedule: Q08DX002 (ip), vehicle: saline",123 % of control
same,T/C,"dose: 6.25 mg/kg/injection, schedule: Q04DX003 (ip), vehicle: saline with Tween-80",150 % of control
same,T/C,"dose: 8.0 mg/kg/injection, schedule: Q08DX002 (ip), vehicle: saline",123 % of control
same,T/C,"dose: 12.5 mg/kg/injection, schedule: Q04DX003 (ip), vehicle: saline with Tween-80",90 % of control
O=C(N/N=C/c1cc(Cl)cc(Cl)c1[O-])c1ccccc1.O=C(N/N=C/c1cc(Cl)cc(Cl)c1[O-])c1ccccc1.[Ni+2],T/C,"dose: 100.0 mg/kg/injection, schedule: Q01DX001 (ip), vehicle: saline with Tween-80",93 % of control
same,T/C,"dose: 200.0 mg/kg/injection, schedule: Q01DX001 (ip), vehicle: saline with Tween-80",92 % of control
same,T/C,"dose: 400.0 mg/kg/injection, schedule: Q01DX001 (ip), vehicle: saline with Tween-80",107 % of control
c1cc(Nc2ccc3c(c2)OCO3)c2cc(C3CCCCC3)ccc2n1,T/C,[1],97 % of control
same,T/C,[2],98 % of control
same,T/C,[3],100 % of control
C1CSC(SCCCSC2SCCCS2)SC1,T/C,"dose: 100.0 mg/kg/injection, schedule: Q04DX003 (ip), vehicle: saline with Tween-80",99 % of control
same,T/C,"dose: 200.0 mg/kg/injection, schedule: Q04DX003 (ip), vehicle: saline with Tween-80",104 % of control
same,T/C,"dose: 400.0 mg/kg/injection, schedule: Q04DX003 (ip), vehicle: saline with Tween-80",94 % of control
O=C(Cc1cc2c(cc1Br)OCO2)NCCc1ccc2c(c1)OCO2,T/C,"dose: 12.5 mg/kg/injection, schedule: Q01DX001 (ip), vehicle: saline + alcohol",99 % of control
same,T/C,"dose: 25.0 mg/kg/injection, schedule: Q01DX001 (ip), vehicle: saline + alcohol",98 % of control
same,T/C,"dose: 50.0 mg/kg/injection, schedule: Q01DX001 (ip), vehicle: saline + alcohol",105 % of control
[CH3][Bi]1[O]C(=O)c2ccccc2[S]1,T/C,"dose: 25.0 mg/kg/injection, schedule: Q01DX005 (ip), vehicle: Klucel (hydroxypropylcellulose) (HPC)",99 % of control and 102 % of control and 97 % of control
CC1OC(OC2CC(O)(C(=O)CO)Cc3c(O)c4c(c(O)c32)C(=O)c2ccccc2C4=O)CC(N)C1O (configuration not stated),T/C,"dose: 0.05 mg/kg/injection, schedule: Q01DX009 (ip), vehicle: water",159 % of control
same,T/C,"dose: 0.1 mg/kg/injection, schedule: Q01DX009 (ip), vehicle: water",185 % of control and 216 % of control
same,T/C,"dose: 0.2 mg/kg/injection, schedule: Q01DX009 (ip), vehicle: water",221 % of control and 261 % of control
same,T/C,"dose: 0.21 mg/kg/injection, schedule: Q04DX003 (ip), vehicle: water",172 % of control
same,T/C,"dose: 0.25 mg/kg/injection, schedule: Q04DX003 (ip), vehicle: water",101 % of control and 122 % of control
same,T/C,"dose: 0.36 mg/kg/injection, schedule: Q04DX003 (ip), vehicle: water",209 % of control
same,T/C,"dose: 0.39 mg/kg/injection, schedule: Q01DX009 (ip), vehicle: water",115 % of control
same,T/C,"dose: 0.4 mg/kg/injection, schedule: Q01DX009 (ip), vehicle: water",115 % of control
same,T/C,"dose: 0.5 mg/kg/injection, schedule: Q04DX003 (ip), vehicle: water",157 % of control
same,T/C,"dose: 0.6 mg/kg/injection, schedule: Q04DX003 (ip), vehicle: water",239 % of control
same,T/C,"dose: 0.78 mg/kg/injection, schedule: Q01DX009 (ip), vehicle: water",86 % of control
same,T/C,"dose: 1.0 mg/kg/injection, schedule: Q04DX003 (ip), vehicle: water",167 % of control and 183 % of control
same,T/C,"dose: 1.3 mg/kg/injection, schedule: Q01DX001 (ip), vehicle: water",216 % of control
same,T/C,"dose: 2.4 mg/kg/injection, schedule: Q01DX001 (ip), vehicle: water",104 % of control
same,T/C,"dose: 3.2 mg/kg/injection, schedule: Q01DX001 (ip), vehicle: water",97 % of control
same,T/C,"dose: 4.0 mg/kg/injection, schedule: Q04DX003 (ip), vehicle: water",104 % of control
CCN(CC)CCOC(=O)Nc1cc(C)cc(C)c1,T/C,[1],94 % of control
same,T/C,[2],91 % of control
CC(N)C12CC3CC(CC(C3)C1)C2 (configuration not stated),T/C,"dose: 25.0 mg/kg/injection, schedule: Q04DX002 (ip), vehicle: saline",108 % of control
same,T/C,"dose: 50.0 mg/kg/injection, schedule: Q04DX002 (ip), vehicle: saline",100 % of control
same,T/C,"dose: 100.0 mg/kg/injection, schedule: Q04DX002 (ip), vehicle: saline",100 % of control
same,T/C,"dose: 100.0 mg/kg/injection, schedule: Q04DX002 (ip), vehicle: suspension in saline",101 % of control
Cc1cc(N2CCCCC2)cc(=O)o1,T/C,"dose: 50.0 mg/kg/injection, schedule: Q01DX009 (ip), vehicle: Klucel (hydroxypropylcellulose) (HPC)",104 % of control
same,T/C,"dose: 100.0 mg/kg/injection, schedule: Q01DX009 (ip), vehicle: Klucel (hydroxypropylcellulose) (HPC)",102 % of control
CCCCCCCCC(O)C#CC(O)CCCCCCCC (configuration not stated),T/C,"dose: 12.5 mg/kg/injection, schedule: Q01DX005 (ip), vehicle: saline with Tween-80",92 % of control
same,T/C,"dose: 25.0 mg/kg/injection, schedule: Q01DX005 (ip), vehicle: saline with Tween-80",90 % of control
same,T/C,"dose: 50.0 mg/kg/injection, schedule: Q01DX005 (ip), vehicle: saline with Tween-80",101 % of control and 91 % of control
same,T/C,"dose: 100.0 mg/kg/injection, schedule: Q01DX005 (ip), vehicle: saline with Tween-80",100 % of control
O=c1[nH]c2cc(Cl)ccc2nc1/C=C(\O)c1ccccn1,T/C,"dose: 60.0 mg/kg/injection, schedule: Q01DX005 (ip), vehicle: Klucel (hydroxypropylcellulose) (HPC)",92 % of control
same,T/C,"dose: 120.0 mg/kg/injection, schedule: Q01DX005 (ip), vehicle: Klucel (hydroxypropylcellulose) (HPC)",91 % of control
same,T/C,"dose: 240.0 mg/kg/injection, schedule: Q01DX005 (ip), vehicle: Klucel (hydroxypropylcellulose) (HPC)",93 % of control
Cc1ccc(C)n1N1CCOCC1,T/C,[1],108 % of control
same,T/C,[2],101 % of control
same,T/C,[3],100 % of control
COc1ccc(C(C)c2cc(OC)c(OC)cc2OC)cc1 (configuration not stated),T/C,[1],102 % of control
same,T/C,[2],102 % of control
same,T/C,[3],105 % of control
